Reference: article PMC6784244 (Toxins, 2019)
Values after ≈ are worked out from the molar mass of the structure shown. Values joined by “and” are separate entries in the source; they are usually repeats but may differ in a detail not shown here. Equal values may be shown once.

What was measured:
[1] = lipid monolayer at air-water interface on PBS pH 7.4, peptide 1 µM, initial pressure 10-30 mN/m, extrapolated to delta pressure 0
Description: (§1) Peptide–lipid interaction was evaluated using reconstituted lipid monolayer at the air–water interface as previously described. Pure prokaryotic and eukaryotic lipids used were: POPC (1-palmitoyl-2-oleoyl-glycero-3-phosphocholine), POPE (1-palmitoyl-2-oleoyl-sn-glycero-3-phosphoethanolamine), POPG (1-palmitoyl-2-oleoyl-sn-glycero-3-phospho-(1’-rac-glycerol), and cardiolipin, all from Avanti Polar Lipid (Alabama, USA). LTA (Lipoteichoic acid from B. subtilis) was obtained from Invivogen SAS (Toulouse, France). Pure lipids were reconstituted in chloroform:methanol (2:1, v:v) at 1 mg/mL and stored at −20 °C under nitrogen. The interaction and insertion of the ENN and BEA into lipids were evaluated through the measurement of their critical pressure of insertion as previously described. Briefly, lipids were spread using a 50 µL Hamilton’s syringe at the surface of 800 µL of sterile PBS creating a lipid monolayer at the air–water interface. Lipids were added until the surface pressure reached the desired value. After 5–10 min of incubation allowing evaporation of the solvent and stabilization of the initial surface pressure, 8 µL of ENN or BEA diluted in sterile PBS at 100 µM were injected into the 800 µL sub-phase of PBS under the lipid monolayer (pH 7.4, volume 800 µL) using a 10 µL Hamilton syringe giving a final concentration of peptides of 1 µM, preliminary experiments having shown that this concentration gave optimal insertion. The variation of the surface pressure caused by peptide injection was then continuously monitored using a fully automated microtensiometer (µTROUGH SX, Kibron Inc., Helsinki, Finland) until reaching equilibrium (maximal surface pressure increase being usually obtained after 15–25 min). The critical pressure of insertion of each peptide was determined by changing the initial pressure of lipid monolayer (from 10 and 30 mN/m) and measuring the variation of pressure caused by the insertion of the peptide. The critical pressure of insertion of each peptide in a particular lipid was determined graphically and calculated as the theoretical value of initial pressure of lipid monolayer not permissive to peptide insertion, i.e., causing a variation of pressure equal to 0 mN/m.

[2] = lipid monolayer on PBS pH 7.4, peptide 1 µM, extrapolated to delta pressure 0; -- = absence of interaction
Description: as §1

[3] = test system: C. perfringens; type: cell-based, Clostridium perfringens
[4] = test system: C. perfringens; type: cell-based, Clostridium perfringens; remark: listed apart in the source
[5] = test system: Bacillus subtilis (ATCC 6633)
[6] = test system: Nisin-resistant B. subtilis (DSMZ 347)
[7] = test system: Vancomycin-resistant Enterococcus faecalis (DSMZ 13591)
[8] = test system: Staphylococcus aureus (ATCC CRM-6538P)
[9] = test system: Methicillin-resistant S. aureus strain MRSA USA300
[10] = test system: Acinetobacter baumannii (CIP 110431)
[11] = test system: Escherichia coli (ATCC 8739)
[12] = test system: Helicobacter pylori (ATCC 43504)
[13] = test system: Pseudomonas aeruginosa (ATCC CRM-9027)
[14] = test system: Mycobacterium smegmatis (mc2155, ATCC 700084); conditions: mc2155, 72 h
[15] = test system: Aspergillus flavus (DSMZ 1959); conditions: DSMZ 1959, pH 7
[16] = test system: A. niger (ATCC 9142); conditions: ATCC 9142, pH 7
[17] = test system: A. ochraceus (DSMZ 824); conditions: DSMZ 824, pH 7
[18] = test system: Candida albicans (DSMZ 10697); conditions: DSMZ 10697, 24 h, pH 7
[19] = test system: Fusarium graminearum (DSMZ 1095); conditions: DSMZ 1095, pH 7
[20] = test system: F. oxysporum (DSMZ 62316); conditions: DSMZ 62316, pH 7
[21] = test system: F. verticillioides (DSMZ 62264); conditions: DSMZ 62264, pH 7
[22] = test system: Penicillium verrucosum (DSMZ 12639); conditions: DSMZ 12639, pH 7
[23] = test system: Stachybotrys chartarum (DSMZ 2144); conditions: DSMZ 2144, pH 7
[24] = test system: human erythrocytes; conditions: pH 7.4
[25] = test system: HEK (human normal epidermal keratinocytes); conditions: 48 h
[26] = test system: N87 (human gastric cell line); conditions: 48 h
[27] = test system: Clostridium perfringens (ATCC 13124)

Row | SMILES | critical pressure of insertion, POPC [1] [mN/m] | critical pressure of insertion, POPE [1] [mN/m] | critical pressure of insertion, POPG [2] [mN/m] | membrane depolarization at 100 µM [3] [%] | membrane depolarization at four times their MIC [3] [%] | Known/possible target [4] | Observed Morphology [4] | MIC, B. subtilis [5] [µM] | MIC, B. subtilis NR [6] [µM] | MIC, E. faecalis [7] [µM] | MIC, S. aureus [8] [µM] | MIC, S. aureus MRSA [9] [µM] | MIC, A. baumannii [10] [µM] | MIC, E. coli [11] [µM] | MIC, H. pylori [12] [µM] | MIC, P. aeruginosa [13] [µM] | MIC, M. smegmatis [14] [µM] | MIC, A. flavus [15] [µM] | MIC, A. niger [16] [µM] | MIC, A. ochraceus [17] [µM] | further results
1 | CC[C@H](C)[C@H]1C(=O)O[C@H](C(C)C)C(=O)N(C)[C@@H]([C@@H](C)CC)C(=O)O[C@H](C(C)C)C(=O)N(C)[C@@H](C(C)C)C(=O)O[C@H](C(C)C)C(=O)N1C [ENN A1] | 38.06 | 34.38 | 41.10 | 97.4 ± 5.3 | 75.3 ± 2.0 | RNA biosynthesis | • No cell elongation • DNA condensed in one filament crossing the cells | 12.5 to 25 | 25 (≈ 16.7 µg/mL) | 6.25 (≈ 4.17 µg/mL) | 12.5 to 25 | 12.5 to 25 | >100 | >100 | >100 | >100 | 3.12 (≈ 2.08 µg/mL) | >100 | >100 | >100 | MIC, C. albicans [18]: 1.5 µM (≈ 1 µg/mL); MIC, F. graminearum [19]: 50 µM (≈ 33.4 µg/mL); MIC, F. oxysporum [20]: >100 µM; MIC, F. verticillioides [21]: >100 µM; MIC, P. verrucosum [22]: >100 µM; MIC, S. chartarum [23]: >100 µM; HC50 (dose causing 50% hemolysis), Erythrocytes [24]: 162.7 ± 22.8 µM; IC50 [25]: 2300 ± 100 nM; IC50 [26]: 3 ± 2 nM
2 | CC[C@H](C)[C@H]1C(=O)O[C@H](C(C)C)C(=O)N(C)[C@@H]([C@@H](C)CC)C(=O)O[C@H](C(C)C)C(=O)N(C)[C@@H]([C@@H](C)CC)C(=O)O[C@H](C(C)C)C(=O)N1C [ENN A] | 40.28 | 38.12 | 44.75 | 108.9 ± 7.3 | 80.8 ± 3.2 | RNA biosynthesis | • Some cell elongation • DNA condensed in one filament crossing the cells | 6.25 to 12.5 | 6.25 to 12.5 | 3.12 (≈ 2.13 µg/mL) | 6.25 to 12.5 | 6.25 to 12.5 | >100 | >100 | >100 | >100 | 6.25 (≈ 4.26 µg/mL) | >100 | >100 | >100 | MIC, C. perfringens [27]: 3.12 µM (≈ 2.13 µg/mL); MIC, C. albicans [18]: 1.5 µM (≈ 1.02 µg/mL); MIC, F. graminearum [19]: 25 µM (≈ 17 µg/mL); MIC, F. oxysporum [20]: >100 µM; MIC, F. verticillioides [21]: >100 µM; MIC, P. verrucosum [22]: >100 µM; MIC, S. chartarum [23]: >100 µM; HC50 (dose causing 50% hemolysis), Erythrocytes [24]: 68.7 µM; IC50 [25]: 2000 ± 100 nM; IC50 [26]: 10 ± 10 nM
3 | CC[C@H](C)[C@H]1C(=O)O[C@H](C(C)C)C(=O)N(C)[C@@H](C(C)C)C(=O)O[C@H](C(C)C)C(=O)N(C)[C@@H](C(C)C)C(=O)O[C@H](C(C)C)C(=O)N1C [ENN B1] | 36.19 | 31.87 | 41.71 | 97.6 ± 9.1 | 68.0 ± 4.3 | Protein biosynthesis | • Some cell elongation (1.5–2 times compared to control) • DNA condensed in 1–4 circles per cells | 25 to 50 | 50 (≈ 32.7 µg/mL) | 12.5 (≈ 8.17 µg/mL) | 25 (≈ 16.3 µg/mL) | 25 (≈ 16.3 µg/mL) | >100 | >100 | >100 | >100 | 6.25 (≈ 4.09 µg/mL) | >100 | >100 | >100 | membrane depolarization at their MIC [3]: 47.4 ± 4.6% and 30–40%; MIC, C. perfringens [27]: 6.25 µM (≈ 4.09 µg/mL); MIC, C. albicans [18]: 3.12 µM (≈ 2.04 µg/mL); MIC, F. graminearum [19]: 25 µM (≈ 16.3 µg/mL); MIC, F. oxysporum [20]: >100 µM; MIC, F. verticillioides [21]: >100 µM; MIC, P. verrucosum [22]: >100 µM; MIC, S. chartarum [23]: >100 µM; HC50 (dose causing 50% hemolysis), Erythrocytes [24]: 356.4 ± 59.3 µM; IC50 [25]: 3300 ± 500 nM; IC50 [26]: 8 ± 8 nM
